This note sets out measurements from patent US10494376B2, “Tetrahydroisoquinoline derived PRMT5-inhibitors” (CTXT PTY LTD, priority 2014, dated 2019).

Where a name gives a salt, the structure may show the parent alone.

Chain of Full-length PRMT5 enzyme (NCBI Reference sequence NP_006100.2) co-expressed with His6-MEP50 (O14744 whole entry): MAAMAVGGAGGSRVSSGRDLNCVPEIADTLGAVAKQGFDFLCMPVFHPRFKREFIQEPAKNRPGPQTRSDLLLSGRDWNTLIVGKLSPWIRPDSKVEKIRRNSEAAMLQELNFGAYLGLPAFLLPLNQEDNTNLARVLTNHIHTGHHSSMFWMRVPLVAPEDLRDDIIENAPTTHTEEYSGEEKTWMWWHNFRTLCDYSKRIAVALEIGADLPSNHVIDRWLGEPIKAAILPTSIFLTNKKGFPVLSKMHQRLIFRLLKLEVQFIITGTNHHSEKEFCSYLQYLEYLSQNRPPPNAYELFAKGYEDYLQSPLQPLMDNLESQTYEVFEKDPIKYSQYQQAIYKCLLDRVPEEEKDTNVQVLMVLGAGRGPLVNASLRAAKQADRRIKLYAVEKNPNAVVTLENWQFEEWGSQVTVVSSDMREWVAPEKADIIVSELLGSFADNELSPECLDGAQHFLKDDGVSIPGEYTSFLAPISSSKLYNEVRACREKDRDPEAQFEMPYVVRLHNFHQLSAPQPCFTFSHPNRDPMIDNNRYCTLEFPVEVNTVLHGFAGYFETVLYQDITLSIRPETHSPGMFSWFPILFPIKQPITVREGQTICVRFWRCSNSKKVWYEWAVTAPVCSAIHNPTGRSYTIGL
Chain of Full-length PRMT5 enzyme (NCBI Reference sequence NP_006100.2) co-expressed with His6-MEP50 (Q9BQA1 whole entry partner): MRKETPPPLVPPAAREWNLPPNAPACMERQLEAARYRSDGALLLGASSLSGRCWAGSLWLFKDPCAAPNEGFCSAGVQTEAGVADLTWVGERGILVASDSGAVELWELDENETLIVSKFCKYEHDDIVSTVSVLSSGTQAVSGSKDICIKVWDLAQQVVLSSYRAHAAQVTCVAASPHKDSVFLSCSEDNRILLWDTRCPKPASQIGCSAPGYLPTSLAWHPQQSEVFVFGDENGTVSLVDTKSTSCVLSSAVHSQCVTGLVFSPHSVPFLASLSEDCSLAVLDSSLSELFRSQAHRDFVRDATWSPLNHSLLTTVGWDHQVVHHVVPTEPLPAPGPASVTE

The target of the experiment is Full-length PRMT5 enzyme (NCBI Reference sequence NP_006100.2) co-expressed with His6-MEP50 (Homo sapiens (Human), UniProt O14744). Briefly: Revised PRMT5 Biochemical Assay. As to conditions: 1 μM peptide substrate, 1 μM S-Adenosyl methionine, 4 hours at 37 degree Celsius, Transcreener EPIGEN fluorescence polarisation. Here is the method:
Compounds of the invention may be tested for in vitro activity in the following assay: A histone H4 derived peptide is used as substrate (amino acid sequence: […]N H2). Full-length PRMT5 enzyme (NCBI Reference sequence NP_006100.2) was co-expressed with His6-MEP50 in insect cells and purified via Nickel immobilized metal affinity and gel filtration chromatography (“the enzyme”).
The 6 μL reactions are run in Greiner brand black 384-well low volume assay plates. All reactions contained assay buffer (phosphate buffered saline, 0.01% (v/v) Tween-20, 0.01% (w/v) albumin from chicken egg white, 1 mM Dithiothreitol, 1 μM peptide substrate, 1 μM S-Adenosyl methionine, and 15 ng/reaction enzyme, with the enzyme being omitted from negative control reactions. Compounds were added in a volume of 100 nL from dilution series prepared in DMSO, positive and negative control reactions receiving the same volume DMSO without compound. The plates were sealed with adhesive seals and incubated for 4 hours at 37 degree Celsius. Reaction progress was measured using the Transcreener™ EPIGEN methyltransferase assay (BellBrook Labs, Madison, Wis.) as recommended by the manufacturer. To each reaction 2 μL detection mix were added, containing coupling enzymes, fluorescence polarisation tracer, and AMP antibody. Plates were incubated for 90 minutes before being read on a PerkinElmer EnVision™ plate reader in fluorescence polarisation mode. IC50 values were obtained from the raw readings by calculating percent inhibition (%1) for each reaction relative to controls on the same plate (% I=(I−CN)/(CP−CN) where CN/CP are the averages of the negative/positive reactions, respectively), then fitting the %1 data vs. compound concentration [I] to % I=(A+((B−A)/(1+((C/[I])^D)))) where A is the lower asymptote, B is the upper asymptote, C is the IC50 value, and D is the slope.
For orientation: Polarisation of emitted light reports the rotation of a fluorescent probe.
For `CC(=O)N1CCC(NC(=O)c2ccc(C(=O)NC[C@@H](O)[C@@H]3Cc4ccccc4CN3)cc2)CC1` [Example 35, N^1-(1-Acetylpiperidin-4-yl)-N^4-((R)-2-hydroxy-2-((S)-1,2,3,4-tetrahydroisoquinolin-3-yl)ethyl)terephthalamide], the IC50 was found to be 0.152 µM.
The compound `O=C(NC[C@@H](O)[C@@H]1Cc2ccccc2CN1)c1ccc(C(=O)N2C[C@H]3COC[C@H]3C2)cc1` [Example 36, 4-(cis-Hexahydro-1H-furo[3,4-c]pyrrole-5-carbonyl)-N-((R)-2-hydroxy-2-((S)-1,2,3,4-tetrahydroisoquinolin-3-yl)ethyl)benzamide] came in with a half-maximal inhibitory concentration (IC50) of 0.148 µM.
`COC1CC2CCC(C1)N2C(=O)c1ccc(C(=O)NC[C@@H](O)[C@@H]2Cc3ccccc3CN2)cc1` (stereo partly drawn) [Example 38, N-((R)-2-Hydroxy-2-((S)-1,2,3,4-tetrahydroisoquinolin-3-yl)ethyl)-4-(3-methoxy-8-azabicyclo[3.2.1]octane-8-carbonyl)benzamide]: the IC50 was 0.599 µM.
The value for `CC(C)N(C)C(=O)c1ccc(C(=O)NC[C@@H](O)[C@@H]2Cc3ccccc3CN2)cc1` [Example 39, N^1-((R)-2-Hydroxy-2-((S)-1,2,3,4-tetrahydroisoquinolin-3-yl)ethyl)-N^4-isopropyl-N^4-methylterephthalamide] was 0.846 µM; that for `O=C(NC[C@@H](O)[C@@H]1Cc2ccccc2CN1)c1ccc(C(=O)N2CCCOCC2)cc1` [Example 40, N-((R)-2-Hydroxy-2-((S)-1,2,3,4-tetrahydroisoquinolin-3-yl)ethyl)-4-(1,4-oxazepane-4-carbonyl)benzamide] was 0.705 µM.
The result for `CN1CCN(C(=O)c2ccc(C(=O)NC[C@@H](O)[C@@H]3Cc4ccccc4CN3)cc2)CC1=O` [Example 41, N-((R)-2-Hydroxy-2-((S)-1,2,3,4-tetrahydroisoquinolin-3-yl)ethyl)-4-(4-methyl-3-oxopiperazine-1-carbonyl)benzamide] reads 1.39 µM.
The value for `O=C(NC[C@@H](O)[C@@H]1Cc2ccccc2CN1)c1ccc(C(=O)N2C3CCC2CC(O)C3)cc1` (stereo partly drawn) [Example 42, N-((R)-2-Hydroxy-2-((S)-1,2,3,4-tetrahydroisoquinolin-3-yl)ethyl)-4-(3-hydroxy-8-azabicyclo[3.2.1]octane-8-carbonyl)benzamide] was 0.212 µM; that for `O=C(NC[C@@H](O)[C@@H]1Cc2ccccc2CN1)c1ccc(C(=O)N2CCCC(O)C2)cc1` (stereo partly drawn) [Example 43, N-((R)-2-Hydroxy-2-((S)-1,2,3,4-tetrahydroisoquinolin-3-yl)ethyl)-4-(3-hydroxypiperidine-1-carbonyl)benzamide] was 0.967 µM.
Compound `O=C(NC[C@@H](O)[C@@H]1Cc2ccccc2CN1)c1ccc(C(=O)NC2CCC(F)(F)CC2)cc1` [Example 44, N^1-(4,4-Difluorocyclohexyl)-N^4-((R)-2-hydroxy-2-((S)-1,2,3,4-tetrahydroisoquinolin-3-yl)ethyl)terephthalamide] gave an IC50 of 1.25 µM.
The result for `O=C(NC[C@@H](O)[C@@H]1Cc2ccccc2CN1)c1ccc(C(=O)N2CCC(O)CC2)cc1` [Example 45, N-((R)-2-Hydroxy-2-((S)-1,2,3,4-tetrahydroisoquinolin-3-yl)ethyl)-4-(4-hydroxypiperidine-1-carbonyl)benzamide] reads 0.5 µM; that for `O=C(NC[C@@H](O)[C@@H]1Cc2ccccc2CN1)c1ccc(C(=O)N2CCC(C(F)F)CC2)cc1` [Example 46, 4-(4-(Difluoromethyl)piperidine-1-carbonyl)-N-((R)-2-hydroxy-2-((S)-1,2,3,4-tetrahydroisoquinolin-3-yl)ethyl)benzamide], 0.23 µM.
`O=C(NC[C@@H](O)[C@@H]1Cc2ccccc2CN1)c1ccc(C(=O)N2CCC(O)C2)cc1` (stereo partly drawn) [Example 47, N-((R)-2-Hydroxy-2-((S)-1,2,3,4-tetrahydroisoquinolin-3-yl)ethyl)-4-(3-hydroxypyrrolidine-1-carbonyl)benzamide] yielded an IC50 of 3.37 µM.
`O=C(NC[C@@H](O)[C@@H]1Cc2ccccc2CN1)c1ccc(Cl)cc1` [Example 48, 4-Chloro-N—((R)-2-hydroxy-2-((S)-1,2,3,4-tetrahydroisoquinolin-3-yl)ethyl)benzamide] yielded a half-maximal inhibitory concentration (IC50) of 0.192 µM.
The result for `O=C(NC[C@H](O)[C@@H]1Cc2ccccc2CN1)c1ccc(C(=O)N2CCOCC2)cc1` [Example 52, N—((S)-2-Hydroxy-2-((S)-1,2,3,4-tetrahydroisoquinolin-3-yl)ethyl)-4-(morpholine-4-carbonyl)benzamide hydrochloride] reads 3.33 µM.
The result for `O=C(NC[C@@H](O)[C@H]1Cc2ccccc2CN1)c1ccc(C(=O)N2CCOCC2)cc1` [Example 54, N—((R)-2-Hydroxy-2-((R)-1,2,3,4-tetrahydroisoquinolin-3-yl)ethyl)-4-(morpholine-4-carbonyl)benzamide hydrochloride] reads 82.1 µM; that for `O=C(NCc1ccccn1)c1ccc(C(=O)NC[C@@H](O)[C@@H]2Cc3ccccc3CN2)cc1` [Example 56, N^1-((R)-2-Hydroxy-2-((S)-1,2,3,4-tetrahydroisoquinolin-3-yl)ethyl)-N^4-(pyridin-2-ylmethly)terephthalamide], 0.383 µM.
In the case of `O=C(NC[C@@H](O)[C@@H]1Cc2ccccc2CN1)c1ccc(OCC(F)(F)F)nc1` [Example 57, N-((R)-2-Hydroxy-2-((S)-1,2,3,4-tetrahydroisoquinolin-3-yl)ethyl)-6-(2,2,2-trifluoroethoxy)nicotinamide], inhibition was half-maximal at 0.594 µM (IC50).
The result for `O=C(NC[C@@H](O)[C@@H]1Cc2ccccc2CN1)c1ccc(OCC2CC2)nc1` [Example 58, 6-(Cyclopropylmethoxy)-N-((R)-2-hydroxy-2-((S)-1,2,3,4-tetrahydroisoquinolin-3-yl)ethyl)nicotinamide] reads 0.657 µM.
The result for `CC(C)Oc1ccc(C(=O)NC[C@@H](O)[C@@H]2Cc3ccccc3CN2)cn1` [Example 59, N-((R)-2-Hydroxy-2-((S)-1,2,3,4-tetrahydroisoquinolin-3-yl)ethyl)-6-isopropoxynicotinamide] reads 0.593 µM; that for `COC(=O)N1CCC(Oc2cccc(C(=O)NC[C@@H](O)[C@@H]3Cc4ccccc4CN3)c2)CC1` [Example 60, Methyl 4-(3-(((R)-2-hydroxy-2-((S)-1,2,3,4-tetrahydroisoquinolin-3-yl)ethyl)carbamoyl)phenoxy)piperidine-1-carboxylate], 3.3 µM; that for `CC(C)OC(=O)N1CCC(Oc2cc(C(=O)NC[C@@H](O)[C@@H]3Cc4ccccc4CN3)ccn2)CC1` [Example 61, Isopropyl 4-((4-(((R)-2-hydroxy-2-((S)-1,2,3,4-tetrahydroisoquinolin-3-yl)ethyl)carbamoyl)pyridin-2-yl)oxy)piperidine-1-carboxylate], 0.104 µM.
The result for `CC(C)COC(=O)N1CCC(Oc2cc(C(=O)NC[C@@H](O)[C@@H]3Cc4ccccc4CN3)ccn2)CC1` [Example 62, Isobutyl 4-((4-(((R)-2-hydroxy-2-((S)-1,2,3,4-tetrahydroisoquinolin-3-yl)ethyl)carbamoyl)pyridin-2-yl)oxy)piperidine-1-carboxylate] reads 0.102 µM; that for `O=C(NC[C@@H](O)[C@@H]1Cc2ccccc2CN1)c1ccnc(OCC(F)(F)F)c1` [Example 63, N-((R)-2-hydroxy-2-((S)-1,2,3,4-tetrahydroisoquinolin-3-yl)ethyl)-2-(2,2,2-trifluoroethoxy)isonicotinamide], 0.245 µM.

A word on the IC50: it is the midpoint of a concentration-inhibition curve. The low end stands for greater potency in that assay, the high end for weaker potency in that assay.
